Key:
[1] = system: MEROS-GFP (ER redox state) in INS-1 832/13 cells; assay: Median MEROS-GFP ratio in thapsigargin-treated INS-1 832/13 cells; assay type: cell-based, rat; details: 10 nM thapsigargin; 10 μM pioglitazone or 500 μg/mL TUDCA, FIG. 38 right panel
Procedure: (§1) FIG. 38 is two graphs showing the percentage of dead cells (left graph) or the median MEROS-GFP ratio (right graph) of INS-1 832/13 cells treated with DMSO alone, 10 nM thapsigargin (Tg), 10 nM Tg and 10 μM pioglitazone, or 10 nM Tg and 500 μg/mL tauroursodeoxycholic acid (TUDCA).
To investigate this possibility, two FDA-approved drugs, pioglitazone (Actos) and tauroursodeoxycholic acid (TUDCA), could affect the ER redox state and ameliorate cell death in cellular models of ER diseases. […] Another small molecule, TUDCA, has been used for treatment of gallstones and biliary cirrhosis and shown to mitigate ER stress in mouse models of diabetes.

INS-1 832/13 cells [2] = assay: Percentage of dead cells in thapsigargin-treated INS-1 832/13 cells; assay type: cell-based, rat
Procedure: as §1
FIG. 43 is a graph of the percentage of dead cells following no treatment or treatment with 10 nM thapsigargin (Tg) or treatment with 10 nM Tg and 10 nM apomorphine.

INS-1 832/13 cells [3] = assay: Cell viability (propidium iodide) after palmitate; assay type: cell-based, rat; details: 0.5 mM palmitate and 10 nM apomorphine, FIG. 42
human islets = assay: Thapsigargin-mediated cell death in primary human islets (cleaved caspase 3 / PARP immunoblot); assay type: cell-based; details: 10 nM thapsigargin; 10 nM apomorphine or 10 μM pioglitazone, FIG. 44
Procedure: (§2) FIG. 44 are two immunoblots showing the amount of cleaved caspase 3 (c-caspase3) and cleaved PARP (c-PARP) present in 10 nM thapsigargin-treated primary human islets (right immunoblot) and 2 μM doxycycline-treated WFS1 knockdown INS-1 832/13 cells (shWFS1) (left immunoblot) treated with 10 nM apomorphine or 10 μM pioglitazone.
Additional experiments were performed to determine whether apomorphine and pioglitazone can protect human islets from ER stress-mediated cell death.

[4] = system: WFS1-knockdown β-cells (INS-1 832/13-derived); assay: Doxycycline-inducible WFS1 knockdown INS-1 832/13 cells, cellular model of Wolfram syndrome; assay type: cell-based, rat; details: 2 μM doxycycline shWFS1; 10 nM apomorphine or 10 μM pioglitazone, FIG. 44
Procedure: as §2
Additional experiments were performed using INS-1 832/13-derived doxycycline-inducible WFS1 knockdown cells, a cellular model of Wolfram syndrome. This model was used to test whether apomorphine and pioglitazone could prevent cell death.

[5] = system: INS-1 832/13 cells expressing MEROS-GFP; assay: Reduced-ER cell population (MEROS-GFP FACS) after palmitate challenge; assay type: cell-based, rat; details: apomorphine 24 hours (10 μM per FIG. 40), then 0.5 mM palmitate 24 hours
INS-1 832/13 cells [6] = assay: Mitochondrial membrane potential (MitoProbe staining) after palmitate; assay type: cell-based, rat; details: 0.5 mM palmitate; 10 nM or 50 nM apomorphine, FIGS. 41 and 42
INS-1 832/13 cells [7] = assay: Toxicity on INS-1 832/13 cells; assay type: cell-based, rat
[8] = system: MEROS-GFP (ER redox state) in INS-1 832/13 cells; assay: MEROS-GFP pilot screen of 1280-compound library and follow-up screens; assay type: cell-based, rat; details: DTT screen, 0.4 mM palmitate + 20 mM glucose screen, FACS confirmation with 0.5 mM palmitate
Procedure: A pilot screen of a 1280-compound library (MicroSource), a collection of 1,040 U.S. drugs and 240 international drugs (FIG. 39) was performed. In this experiment, INS-1 832/13 cells stably-expressing MEROS-GFP were seeded (20,000 cells/well) in black optical 96-well plates. After 24 hours, 2 μL of each compound was added using the TeMo liquid handling robot. After another 24 hours, cells were challenged with 0.2 mM DTT, a strong reducing agent, for 2 hours, and then the MEROS-GFP ratio was calculated.

[9] = system: INS-1 832/13 cells (a pancreatic β-cell line); assay: Reduced MEROS-GFP by FACS in INS-1 832/13 cells in high glucose with soluble MANF; assay type: cell-based, rat; details: 25 mM glucose; 0.5 μg/mL soluble MANF (48 hours per FIG. 45)
Procedure: FIG. 45 is a graph of fluorescence-assisted cell sorting data showing the percentage of INS1 832/13 cells (pancreatic (3 cell line) containing the reduced form of EroGFP in the endoplasmic reticulum following culture in 11 mM glucose or 25 mM glucose (24 hours) (top panels and bottom panels, respectively), and treatment with 0 or 0.5 μg/mL soluble MANF for 48 hours (left panels and right panels, respectively). The cells were excited using a wavelength at 473 nm and an emission spectrum of 510 nm.
Further experiments were performed to determine whether soluble MANF can prevent fluctuations in the redox environment in the endoplasmic reticulum of pancreatic β-cells upon exposure to an agent that induces endoplasmic reticulum stress. Experiments were performed using INS-1 832/13 cells (a pancreatic β-cell line) transfected with a lentivirus vector expressing MEROS-GFP. The cells were cultured in 11 mM or 25 mM glucose, and either left untreated or treated with 0.5 μg/mL soluble MANF. The cells were then analyzed using FACS analysis using an excitation spectrum between 460-495 nm and an emission spectrum of between 520-570 nm (FITC-A optical filter) which allows for the specific detection of fluorescent emission from reduced EroGFP in the transfected cells.

[10] = system: mouse pancreatic β-cell line (MIN6); assay: Cleaved caspase-3 immunoblot in MIN6 cells treated with tunicamycin and soluble MANF; assay type: cell-based; details: tunicamycin 1 μM, 24 hours; 0, 40 or 200 nM soluble MANF, FIG. 8
Procedure: FIG. 8 is an immunoblot showing the levels of cleaved caspase-3 in a murine pancreatic β-cell line (MIN6) untreated or treated for 24-hours with 1 μM tunicamycin or 100 nM thapsigargin, and further treated with 0, 40, or 200 nM soluble MANF.
Additional experiments were performed to determine whether soluble MANF would decrease or delay endoplasmic reticulum stress-induced apoptosis in pancreatic β-cells treated with an endoplasmic reticulum stress-inducing chemical agent.

Question: C[C@H](CCC(=O)NCCS(=O)(=O)O)[C@H]1CC[C@H]2[C@@H]3[C@@H](O)C[C@@H]4C[C@H](O)CC[C@]4(C)[C@H]3CC[C@]12C [TUDCA, tauroursodeoxycholic acid] was tested. Which “ER redox state (median MEROS-GFP ratio)” value [1] did it give?
Answer: The value was “shift the ER towards an oxidizing environment”.

Question: And the “Cell death (percentage of dead cells)” value (INS-1 832/13 cells [2]; 10 nM thapsigargin, 10 μM pioglitazone or 500 μg/mL TUDCA, FIG. 38 left panel)?
Answer: Its value is “protect cells from death under ER stress conditions”.

Question: Which “ER stress-induced cell death (propidium iodide)” value (INS-1 832/13 cells [3]) does the source give for CN1CCc2cccc3c2[C@H]1Cc1ccc(O)c(O)c1-3 [apomorphine] here?
Answer: Its value is “suppressed ER stress-induced cell death”.

Question: And the Thapsigargin-mediated cell death (human islets)?
Answer: The Thapsigargin-mediated cell death was “could protect human islets from thapsigargin-mediated cell death”.

Question: And the “Cell death of WFS1-knockdown cells” value [4]?
Answer: The value was “could protect WFS1-knockdown β-cells from cell death”.

Question: And the “Cleavage of PARP (caspase 3 substrate)” value [4]?
Answer: Its value is “suppressed”.

Question: What about the “Cleavage of caspase 3” value [4] of the same molecule?
Answer: Its value is “suppressed cleavage of caspase 3”.

Question: What about the “Cell death (percentage of dead cells)” value (INS-1 832/13 cells [2]; 10 nM thapsigargin and 10 nM apomorphine, FIG. 43) of the same molecule?
Answer: The value was “protected INS-1 832/13 cells from ER stress-mediated cell death”.

Question: And the “Population of cells that had reduced ER” value [5]?
Answer: The value was “decreased the population of cells that had reduced ER”.

Question: And the “Population with lower mitochondrial membrane potential” value (INS-1 832/13 cells [6])?
Answer: Its value is “decreased the population with lower mitochondrial membrane potential”.

Question: Which results are given for COC1=CC(=O)C[C@@H](C)[C@]12Oc1c(Cl)c(OC)cc(OC)c1C2=O [griseofulvin]?
Answer: Toxic effects on cells (INS-1 832/13 cells [7]): strong toxic effects; Outcome in the screening assays [8]: positively identified in the screening assays

B1: soluble MANF: soluble mammalian form of mesencephalic astrocyte-derived neurotrophic factor, e.g. human SEQ ID NO: 2; species of tested protein not stated (protein)
chain: LRPGDCEVCISYLGRFYQDLKDRDVTFSPATIENELIKFCREARGKENRLCYYIGATDDAATKIINEVSKPLAHHIPVEKICEKLKKKDSQICELKYDKQIDLSTVDLKKLRVKELKKILDDWGETCKGCAEKSDYIRKINELMPKYAPKAASARTDL
Question: With B1 as the molecule, how does the “Number of cells containing a detectable level of reduced MEROS-GFP” value [9] read?
Answer: The value was “decrease in the number of cells containing a detectable level of reduced MEROS-GFP”.

Question: And the Caspase-3 cleavage [10]?
Answer: The Caspase-3 cleavage was “significantly reduced the amount of caspase-3 cleavage”.

Source: patent publication US10845371B2, “Soluble MANF in pancreatic beta-cell disorders” (University of Massachusetts, priority 2012, dated 2020)
